The target of one data set is XOD (xanthine oxidase) (Homo sapiens, UniProt P47989). As to the kind of experiment: In vitro XOD enzyme activity inhibition (xanthine substrate, uric acid measured at 290 nm). In kind it is biochemical. Conditions: for IC50: in vitro, inhibitor co-reacted with XOD 10 min, xanthine substrate, 290 nm, read-out: XOI IC50 (XOD inhibitory activity); for inhibition at 1000 µM: compound concentration 1 mM (FIG. 11), read-out: xanthine oxidase inhibitory activity at 1 mM. The protocol:
The inhibitory effect of quinoline structural analogs on XOD was evaluated by co-reacting an inhibitor with XOD for 10 min, adding a certain concentration of a reaction substrate xanthine, and measuring the amount of uric acid produced at 290 nm.

For data set [1], the system named is hyperuricemic mice. Briefly: Hepatic uric acid in hyperuricemic mice. Conditions: liver homogenate, day 21 (p<0.01); KA 7, 35, 70 mM/kg/day; allopurinol 35 mM/kg/day. In kind it is in vivo, Kunming mice. From the text:
(§1) 36 SPF-grade male Kunming mice with relatively consistent posture and good health were randomly divided into a normal control group, a model group, a positive control group, a kynurenic acid low dose group (KA-L), a kynurenic acid medium dose group (KA-M) and a kynurenic acid high dose group (KA-H), with six experimental mice in each group. The normal control group received daily gavage of an equal amount of CMC-Na solution and injection of an equal amount of saline, and the remaining groups received daily gavage of 500 mg/kg hypoxanthine (HX) and intraperitoneal injection of 300 mg/kg potassium oxazinate (PO). […] Oral gavage was continued for 21 days. Data were analyzed for correlation and significance by using SPSS 23.0 software, and differences between the groups were compared by using one-way ANOVA, *p<0.05 indicates a significant difference, **p<0.01 indicates a very significant difference, and the data were expressed as X±SD.
Serum uric acid levels in target mice were detected by using a uric acid (UA) test kit. […]
On day 21, the mice in each group of Example 1 were quickly sacrificed by cervical dislocation after being fasted for solids and liquids for 12 h and livers were collected for weighing and subpackaging. […] Uric acid levels in the mouse liver homogenate samples were determined by using the method described in Example 2. […]

In data set [2] the test system is hyperuricemic mice. Briefly: Serum uric acid in hyperuricemic mice (UA test kit). The format is in vivo, Kunming mice. The following applies: for serum uric acid level: hyperuricemic mice, day 21, vs model group (p<0.01), KA 7, 35, 70 mM/kg/day, allopurinol 35 mM/kg/day, gavage. The protocol: (§2) The normal control group received daily gavage of an equal amount of CMC-Na solution and injection of an equal amount of saline, and the remaining groups received daily gavage of 500 mg/kg hypoxanthine (HX) and intraperitoneal injection of 300 mg/kg potassium oxazinate (PO). […] Oral gavage was continued for 21 days. Data were analyzed for correlation and significance by using SPSS 23.0 software, and differences between the groups were compared by using one-way ANOVA, *p<0.05 indicates a significant difference, **p<0.01 indicates a very significant difference, and the data were expressed as X±SD.
At the end of the experiment on day 21, the mice in each group of Example 1 were subjected to blood collection from eyeballs of living bodies after being fasted for solids and liquids for 12 h. After sufficient blood samples were collected, they were allowed to stand at room temperature for 30 min and then centrifuged (3500 rpm, 10 min). A supernatant was taken and stored at −20° C. for standby application.
Serum uric acid levels in target mice were detected by using a uric acid (UA) test kit. The serum uric acid level is an important evaluation index of drug improvement in hyperuricemia.

Data set [3] concerns the target T1, XOD (Mus musculus, UniProt Q00519).
T1 construct: from tissue; host or cells: liver homogenate of male Kunming mice (hyperuricemia model)
As to the kind of experiment: Serum XOD enzyme activity in hyperuricemic mice (colorimetric kit). The format is in vivo, Kunming mice. Conditions: day 21, vs model group (p<0.01), KA 7, 35, 70 mM/kg/day, allopurinol 35 mM/kg/day. The protocol:
as §2
After sufficient blood samples were collected, they were allowed to stand at room temperature for 30 min and then centrifuged (3500 rpm, 10 min). A supernatant was taken and stored at −20° C. for standby application.

Data set [4] has as its target T1, XOD. As to the kind of experiment: Hepatic XOD enzyme activity in hyperuricemic mice. The format is in vivo, Kunming mice. Conditions: liver homogenate, day 21, vs model group (p<0.01); KA 7, 35, 70 mM/kg/day.
Source text: as §1
Serum samples of Example 2 were taken, and the XOD enzyme activity levels in the mouse serum samples were determined by using a xanthine oxidase (XOD) assay kit (a colorimetric method), and experimental operations and data calculation were performed in strict accordance with the kit instructions. […]

Data set [5] concerns hyperuricemic mice. As to the kind of experiment: Serum creatinine (CRE) in hyperuricemic mice. In kind it is in vivo, Kunming mice. The following applies: day 21, vs model group (p<0.01), KA 7, 35, 70 mM/kg/day.
Source text: as §1, with “X±SD. […]” for “X±SD.”
Serum samples of Example 2 were taken and the CRE content of the mouse serum samples was measured by using a creatinine (CRE) assay kit (sarcosine oxidation), and experimental operations and data calculation were performed in strict accordance with the kit instructions.

A short description of data set [6]: Body weight of hyperuricemic mice. In kind it is in vivo, Kunming mice. Conditions: hyperuricemic mice (HX + PO), daily gavage KA 7, 35 or 70 mM/kg, 21 days. The procedure:
SPF-grade male Kunming mice (8 weeks old), 35±5 g, were purchased from Changzhou Cavens Laboratory Animal Co., Ltd. Animal quality was tested by Suzhou Xishan Biotechnology Co., Ltd.
Experimental mice were housed in a clean animal feeding room, and feeding and experimental operations were performed according to the standards of the Animal Experimental Center, and the animal feeding room and an operating workbench were cleaned and disinfected daily. All experimental mice were housed in a comfortable environment (temperature: 25±2° C., humidity: 40%-70%, 12 hours of day and night cycle) with good ventilation and daily supplementation of feed and drinking water.
36 SPF-grade male Kunming mice with relatively consistent posture and good health were randomly divided into a normal control group, a model group, a positive control group, a kynurenic acid low dose group (KA-L), a kynurenic acid medium dose group (KA-M) and a kynurenic acid high dose group (KA-H), with six experimental mice in each group. […] Data were analyzed for correlation and significance by using SPSS 23.0 software, and differences between the groups were compared by using one-way ANOVA, *p<0.05 indicates a significant difference, **p<0.01 indicates a very significant difference, and the data were expressed as X±SD. […]

The test system of data set [7] is adenosine deaminase (ADA). As to the kind of experiment: Serum adenosine deaminase activity (ADA) in hyperuricemic mice (peroxidase method kit). The format is in vivo, Kunming mice.
Source text: as §1
At the end of the experiment on day 21, the mice in each group of Example 1 were subjected to blood collection from eyeballs of living bodies after being fasted for solids and liquids for 12 h. […]
Serum samples of Example 2 were taken, and ADA enzyme activity levels in the mouse serum samples were determined by using an adenosine deaminase activity (ADA) assay kit (a peroxidase method).

Data set [8] deals with hyperuricemic mice. Briefly: Blood urea nitrogen (BUN) in hyperuricemic mice. The format is in vivo, Kunming mice.
Source text: as §1, with “X±SD. […]” for “X±SD.”
Serum samples of Example 2 were taken and the blood urea nitrogen (BUN) content in the mouse serum samples was measured by using a blood urea nitrogen (BUN) assay kit (a urease method), and experimental operations and data calculation were performed in strict accordance with the kit instructions.

[9] abbreviates: hyperuricemic mice, day 21, vs model group (p<0.01), KA 7, 35, 70 mM/kg/day.

“Also recorded” adds a separate entry of the source.

The term IC50 denotes the concentration that gives 50% inhibition.

T1 sequence (Q00519 whole entry): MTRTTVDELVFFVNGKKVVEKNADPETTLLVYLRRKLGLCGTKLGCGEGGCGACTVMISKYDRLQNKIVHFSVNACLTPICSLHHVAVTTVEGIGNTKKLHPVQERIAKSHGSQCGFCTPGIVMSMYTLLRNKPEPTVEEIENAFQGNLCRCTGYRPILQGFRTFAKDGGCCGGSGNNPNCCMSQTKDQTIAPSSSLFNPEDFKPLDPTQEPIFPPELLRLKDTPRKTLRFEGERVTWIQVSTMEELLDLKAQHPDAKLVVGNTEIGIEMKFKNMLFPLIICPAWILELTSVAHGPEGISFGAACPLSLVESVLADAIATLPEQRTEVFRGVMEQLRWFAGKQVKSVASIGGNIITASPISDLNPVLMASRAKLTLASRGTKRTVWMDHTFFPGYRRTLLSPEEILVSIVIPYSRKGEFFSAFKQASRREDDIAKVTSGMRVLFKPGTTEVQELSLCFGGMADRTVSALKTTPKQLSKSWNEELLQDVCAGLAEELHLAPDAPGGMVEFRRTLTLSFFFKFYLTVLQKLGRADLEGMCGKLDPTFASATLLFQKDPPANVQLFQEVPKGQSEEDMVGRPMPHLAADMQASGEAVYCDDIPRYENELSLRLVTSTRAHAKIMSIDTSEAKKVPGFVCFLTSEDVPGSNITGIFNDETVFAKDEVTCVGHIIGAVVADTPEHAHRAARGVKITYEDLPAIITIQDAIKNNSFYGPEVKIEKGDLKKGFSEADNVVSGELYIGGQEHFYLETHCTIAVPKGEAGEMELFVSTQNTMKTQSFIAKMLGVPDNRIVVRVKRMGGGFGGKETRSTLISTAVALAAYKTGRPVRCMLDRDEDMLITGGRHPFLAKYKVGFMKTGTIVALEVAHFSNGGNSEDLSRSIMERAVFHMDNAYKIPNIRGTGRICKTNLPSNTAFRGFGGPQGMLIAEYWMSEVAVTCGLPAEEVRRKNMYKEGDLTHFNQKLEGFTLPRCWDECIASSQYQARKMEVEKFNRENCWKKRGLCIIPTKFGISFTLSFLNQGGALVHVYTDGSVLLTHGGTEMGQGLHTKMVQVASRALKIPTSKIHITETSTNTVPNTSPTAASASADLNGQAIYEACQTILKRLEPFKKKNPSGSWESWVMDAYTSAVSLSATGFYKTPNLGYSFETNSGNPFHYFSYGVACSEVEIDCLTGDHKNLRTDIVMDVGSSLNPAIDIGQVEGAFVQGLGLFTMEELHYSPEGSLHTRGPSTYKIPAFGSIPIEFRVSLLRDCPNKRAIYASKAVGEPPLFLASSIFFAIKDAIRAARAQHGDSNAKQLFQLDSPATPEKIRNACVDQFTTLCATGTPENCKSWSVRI
Sequence of XOD (xanthine oxidase) (P47989 whole entry, species assumed): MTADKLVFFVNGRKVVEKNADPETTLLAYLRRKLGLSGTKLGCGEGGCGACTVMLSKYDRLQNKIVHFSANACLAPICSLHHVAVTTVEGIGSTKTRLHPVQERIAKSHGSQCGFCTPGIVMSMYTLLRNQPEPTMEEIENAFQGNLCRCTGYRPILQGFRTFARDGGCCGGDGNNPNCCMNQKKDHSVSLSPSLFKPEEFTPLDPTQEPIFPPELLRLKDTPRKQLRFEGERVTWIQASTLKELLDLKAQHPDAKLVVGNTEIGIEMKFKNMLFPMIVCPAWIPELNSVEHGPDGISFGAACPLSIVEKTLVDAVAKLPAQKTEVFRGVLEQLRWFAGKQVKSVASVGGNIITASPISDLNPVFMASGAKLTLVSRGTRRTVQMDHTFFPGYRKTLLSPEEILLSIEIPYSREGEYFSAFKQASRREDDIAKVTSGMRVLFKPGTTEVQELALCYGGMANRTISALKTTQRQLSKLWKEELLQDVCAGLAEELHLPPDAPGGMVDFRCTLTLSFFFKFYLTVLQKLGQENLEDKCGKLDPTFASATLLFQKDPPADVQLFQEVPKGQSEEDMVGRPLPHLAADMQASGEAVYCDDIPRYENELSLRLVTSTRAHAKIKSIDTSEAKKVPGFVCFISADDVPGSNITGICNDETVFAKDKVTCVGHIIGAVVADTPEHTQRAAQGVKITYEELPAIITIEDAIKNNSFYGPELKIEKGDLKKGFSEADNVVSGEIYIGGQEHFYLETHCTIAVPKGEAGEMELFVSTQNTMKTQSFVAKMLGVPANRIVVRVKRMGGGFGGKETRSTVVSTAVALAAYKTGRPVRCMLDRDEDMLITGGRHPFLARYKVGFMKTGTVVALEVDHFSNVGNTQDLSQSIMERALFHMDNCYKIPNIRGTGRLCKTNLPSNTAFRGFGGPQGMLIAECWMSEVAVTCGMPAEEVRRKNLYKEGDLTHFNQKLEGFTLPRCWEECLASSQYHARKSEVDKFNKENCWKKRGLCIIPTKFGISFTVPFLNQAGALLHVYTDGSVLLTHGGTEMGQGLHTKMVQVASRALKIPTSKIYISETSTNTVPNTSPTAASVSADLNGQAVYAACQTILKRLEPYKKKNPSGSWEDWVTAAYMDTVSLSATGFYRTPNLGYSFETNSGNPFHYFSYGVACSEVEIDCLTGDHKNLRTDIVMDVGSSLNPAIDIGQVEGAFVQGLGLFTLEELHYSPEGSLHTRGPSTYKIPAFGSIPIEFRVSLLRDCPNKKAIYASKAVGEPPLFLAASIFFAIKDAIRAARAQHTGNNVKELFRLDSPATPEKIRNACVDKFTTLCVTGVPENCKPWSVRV

Consider `CCOC(=O)c1cc(O)c2ccccc2n1` [Compound 7, Ethyl 4-hydroxyquinoline-2-carboxylate], for which, on XOD (xanthine oxidase), the IC50 is 5650 ± 100 µM.

As to `Oc1ncnc2[nH]ncc12` [allopurinol, reference compound], in the data set on hyperuricemic mice [1], the “hepatic uric acid level” value is listed as “significantly reduced”. Besides, the “serum uric acid level” value in the data set with hyperuricemic mice [2] was “significantly inhibited the increase”. At XOD (xanthine oxidase) (FIG. 10A to 10R), the “xanthine oxidase inhibitory activity at various concentrations” value is “concentration-dependent”.

Take `O=C(O)c1cnc2ccc(O)cc2c1` [Compound 5, 6-Hydroxyquinoline-3-carboxylic acid]: at XOD (xanthine oxidase), the inhibition at 1000 µM is above 50% and the IC50 was determined as 500 ± 130 µM.

For `O=C(O)c1cc(O)nc2ccccc12` [Compound 11, 2-Hydroxyquinoline-4-carboxylic acid], the IC50 on XOD (xanthine oxidase) turned out to be 1610 ± 70 µM.

As to `O=C(O)c1cc(O)c2ccccc2n1` [KA, Kynurenic acid], in the data set with hyperuricemic mice [1], the “hepatic uric acid level” value is listed as “reduce hepatic UA levels in a concentration-dependent manner; also recorded: reduce hepatic uric acid levels in a concentration-dependent manner; also recorded: gradient decline”. Also, the “serum XOD enzyme activity” value at XOD [3] is listed as “reduce serum XOD enzyme activity in hyperuricemic mice to varying degrees”. In the data set with hyperuricemic mice [2] (KA-H, 70 mM/kg/day, day 21), the “serum uric acid level, comparison among KA doses” value is “most pronounced”. The “serum uric acid level” value in the data set on hyperuricemic mice [2] was “significantly reduce”. Also, the “hepatic XOD enzyme activity” value on XOD [4] is reported as “effectively inhibit; also recorded: decreased significantly”. Besides, on XOD (xanthine oxidase), the IC50 amounted to 1990 ± 260 µM. In the data set with hyperuricemic mice [5], the “serum creatinine (CRE) level” value was “significantly reduces; also recorded: significantly decrease”. Moreover, the “growth status and body weight” value in data set [6] was “no significant effect; also recorded: no significant impact; also recorded: did not affect”. In data set [7] (KA-H, 70 mM/kg/day, day 21), the “serum ADA enzyme activity, comparison among KA doses” value was “the most significant”. Also, the “serum ADA enzyme activity” value in [7] (setting [9]) is “effectively reduce; also recorded: significantly reduced”. The “BUN level compared with the positive control group” value with hyperuricemic mice [8] (KA-M and KA-H (35 and 70 mM/kg/day) vs allopurinol 35 mM/kg/day (p<0.01)) is recorded as “reduce BUN levels in the mice more significantly”. Further, the “blood urea nitrogen (BUN) level” value in the data set on hyperuricemic mice [8] (setting [9]) is on record as “significantly reduces; also recorded: significantly decrease”.

As for `O=C(O)c1nc2ccccc2cc1O` [Compound 13, 3-Hydroxyquinoline-2-carboxylic acid], at XOD (xanthine oxidase), the inhibition at 1000 µM was above 50% and the IC50 was 970 ± 50 µM.

Values taken from patent US20250275954A1, “USE OF KYNURENIC ACID RESISTING HYPERURICEMIA AND STRUCTURAL ANALOG THEREOF IN PREPARATION OF XOD INHIBITOR” (JIMEI UNIVERSITY, priority 2023, published 2025).
